From article PMC5856125 (Journal of the American Chemical Society, 2018) come the findings set out here.

For this assay, the target named is lipoteichoic acid synthase (LtaS) (Staphylococcus aureus, UniProt Q2G093). The assay is described as follows: LTA polymerization in proteoliposomes with purified LtaS, anti-LTA blot. It is filed as biochemical.
Sequence of lipoteichoic acid synthase (LtaS) (Q2G093 whole entry): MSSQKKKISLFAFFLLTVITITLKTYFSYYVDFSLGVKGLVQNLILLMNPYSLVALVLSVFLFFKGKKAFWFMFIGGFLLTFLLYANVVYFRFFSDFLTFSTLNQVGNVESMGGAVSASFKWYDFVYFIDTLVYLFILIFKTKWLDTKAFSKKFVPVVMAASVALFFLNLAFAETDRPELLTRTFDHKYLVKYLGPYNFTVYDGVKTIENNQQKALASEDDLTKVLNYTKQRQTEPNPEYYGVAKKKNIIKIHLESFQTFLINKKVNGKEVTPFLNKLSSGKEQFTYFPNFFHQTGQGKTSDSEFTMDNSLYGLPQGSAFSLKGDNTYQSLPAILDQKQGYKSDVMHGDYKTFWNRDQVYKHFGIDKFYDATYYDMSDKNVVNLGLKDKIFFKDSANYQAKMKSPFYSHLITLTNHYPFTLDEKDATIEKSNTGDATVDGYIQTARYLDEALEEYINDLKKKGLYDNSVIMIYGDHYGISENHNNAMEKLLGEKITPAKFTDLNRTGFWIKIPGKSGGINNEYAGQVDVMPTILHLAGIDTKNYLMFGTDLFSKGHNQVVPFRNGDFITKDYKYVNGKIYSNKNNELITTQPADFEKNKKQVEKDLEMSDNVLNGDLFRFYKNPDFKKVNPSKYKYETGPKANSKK

One may read the IC50 as the point on the concentration scale where inhibition reaches its midpoint. Read a high IC50 as weaker potency in that assay. Turning to `Nc1c(/N=N/c2ccc(-c3ccc(/N=N/c4cc(S(=O)(=O)O)c5ccccc5c4N)cc3)cc2)cc(S(=O)(=O)O)c2ccccc12` [compound 1, Congo red], the IC50 is approximately 2000 nM.
